Measured values: ChEMBL document CHEMBL1141323, “Iriomoteolides-1b and -1c, 20-membered macrolides from a marine dinoflagellate Amphidinium species” (J Nat Prod, 2007)
≈ marks a conversion by molar mass, not a printed value.

How the values were obtained:
[1] = Cytotoxicity against human DG75 cells; format: cell-based; details: DG-75
[2] = system: Raji (Homo sapiens); experiment: Cytotoxicity against EBV-infected Raji cells; details: human gammaherpesvirus 4, Raji

C/C1=C/C(=O)[C@](C)(O)/C=C/C[C@H](C)[C@@H](C[C@H](C)[C@H](C)O)OC(=O)/C=C(/C)[C@@H](C)[C@@H](O)/C=C/C[C@H](O)C1
IC50 [1]: 900 ng/mL (≈ 1780 nM)

C=C1C[C@@H]2C/C=C/[C@H](O)[C@H](C)/C(C)=C\C(=O)O[C@H](CCC(C)C(C)O)[C@@H](C)C/C=C/[C@@](C)(O)[C@](O)(C1)O2 (stereo not given in full)
IC50 [1]: 2 ng/mL (≈ 3.84 nM)
IC50 [2]: 4 ng/mL (≈ 7.68 nM)

C=C1C[C@@H]2C/C=C/[C@H](O)[C@H](C)/C(C)=C\C(=O)O[C@H](C[C@H](C)[C@H](C)O)[C@@H](C)C/C=C/[C@@](C)(O)[C@](O)(C1)O2
IC50 [1]: 2 ng/mL (≈ 3.95 nM)
IC50 [2]: 4 ng/mL (≈ 7.89 nM)
